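Dose response: 5 concentrations. Exposure: 48 h. Format: 96-well plates. Endpoint: linear interpolation; highest concentration if not reached. GI50 = concentration required for 50% inhibition of growth.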 Calls of active or inactive are those of the source. Rule as the data show it: active = GI50 up to about 1.1 µM and inactive = higher. Where only a bound is given, the exact number is not on record here.

Holding throughout (assay): growth of human tumour cells (NCI), 48 h
The test system of assay [1] is LXFL 529.
Assay [2] deals with DMS-273.
Assay [3] relates to DLD-1.
The test system of assay [4] is DMS-114.
The subject of assay [5] is HOP-18.
Assay [6] deals with SNB-78.
In assay [7] the test system is RXF 631.
In assay [8] the test system is M19-MEL.
Assay [9] has as its system XF498.

As for `CC(C)CCCC(C)[C@H]1CCC2[C@H]3C(CC[C@@]21C)[C@@]1(C)CCC=C[C@]12C[C@@H]2[C@@H]3O` (stereo partly specified), the GI50 in [1], in assay [2], in assay [3], in assay [4], in assay [5] and in [6] was > 100 µM (inactive) in each case. Moreover, the GI50 in [7] is > 100 µM (inactive).
As for `CC(NC(=O)c1ccccc1)C(=O)N(Cc1ccccc1)Cc1ccccc1` (stereo unspecified), the GI50 in assay [1] was 18.4 µM (inactive); in assay [2] it was 21.3 µM (inactive); in assay [3], 31.4 µM (inactive); in assay [4], 19 µM (inactive); in assay [8], 24.4 µM (inactive); in [6], 27.7 µM (inactive).
For `CC(C)(C)CC(C)(C)c1cc2c(O)c(c1)Cc1cc(C(C)(C)CC(C)(C)C)cc(c1O)Cc1cc(C(C)(C)CC(C)(C)C)cc(c1O)Cc1cc(C(C)(C)CC(C)(C)C)cc(c1O)C2`, the GI50 in [1], in assay [2], in assay [3], in assay [9], in assay [4] and in assay [8] was > 100 µM (inactive) throughout. In addition, the GI50 in [6] and in assay [7] was > 100 µM (inactive) throughout.
`CSc1cc(C(C)(C)C)ccc1C(O)c1ccc(C(C)(C)C)cc1SC`: the GI50 is 13.7 µM (inactive) in assay [1]; 10.9 µM (inactive) in [2]; 8.36 µM (inactive) in assay [3]; 10.8 µM (inactive) in [9]; 7.69 µM (inactive) in [4]; 15.5 µM (inactive) in assay [5]. Moreover, the GI50 is 10.2 µM (inactive) in assay [8] and 15.6 µM (inactive) in assay [6].
In the case of `Cc1cccc(C(C)(C)C)c1NC(=O)CCl`, the GI50 in assay [1], in assay [2], in [3], in assay [9], in [5] and in assay [8] was > 100 µM (inactive) in each case. Further, the GI50 in assay [6] and in assay [7] was > 100 µM (inactive) each time.
With `CN(C)CCNc1nc(-c2cccs2)cc(-c2cccs2)n1`, the GI50 in assay [1] is 14.8 µM (inactive); in assay [2] it was 10.8 µM (inactive); in assay [3], 22.5 µM (inactive); in assay [9] it was 3.39 µM (inactive); in [4] it was 8.73 µM (inactive); in assay [5], < 0.01 µM (active). Also, the GI50 in assay [6] was 16.9 µM (inactive).
Regarding `CC1(C)C(=O)CCC(=O)C(C)(C)C2=CC=C(O2)C(C)(C)C(=O)CCC(=O)C(C)(C)C2=CC=C1O2`, the GI50 in assay [1], in assay [2], in assay [5], in assay [8] and in assay [6] was > 100 µM (inactive) throughout.
Regarding `CC(=O)Nc1ccc(C2=N/C(=C\c3ccc(Cl)cc3)C(=O)O2)cc1`, the GI50 in assay [1] is 24.4 µM (inactive); in assay [2], 66.5 µM (inactive); in assay [3], 31.9 µM (inactive); in assay [9] it was 22 µM (inactive); in assay [5] it was > 100 µM (inactive); in assay [8] it was 25.5 µM (inactive). In addition, in assay [6], the GI50 was > 100 µM (inactive).
For `O=C1OC(=O)c2c1nc1ccccc1c2-c1ccccc1`, the GI50 in assay [1], in assay [2], in assay [3], in [4], in [5] and in [8] was > 100 µM (inactive) each time. The GI50 in assay [6] and in assay [7] was > 100 µM (inactive) each time.
Take `CN(C)CCS/C(=N\c1ccccc1)N1CCCCC1`: the GI50 was 15.9 µM (inactive) in [1]; 16.7 µM (inactive) in assay [2]; 17.3 µM (inactive) in assay [3]; 16.1 µM (inactive) in assay [9]; 13.5 µM (inactive) in assay [4]; 17.9 µM (inactive) in assay [5]. The GI50 in [8] is 17.1 µM (inactive).
Turning to `NC(=O)NCc1c(C(N)=O)ncn1Cc1ccccc1`, the GI50 in [1], in assay [2], in assay [3], in assay [9], in [4] and in [5] was > 100 µM (inactive) in each case. Further, the GI50 in [8] and in assay [6] was > 100 µM (inactive) throughout.
On to `CSC(=S)N(C)NC(=O)c1cccc(C(=O)NN(C)C(=S)SC)n1`, for which the GI50 in [1] is 10.4 µM (inactive); in assay [2], 14.1 µM (inactive); in assay [3], 27.2 µM (inactive); in assay [4], 1.36 µM (inactive); in [5], 78.5 µM (inactive); in [8] it was 31 µM (inactive). For the same compound, the GI50 in [6] was 27.7 µM (inactive).
For `COC(=O)c1cccc2c3ccccc3c3ccccc3c12`, the GI50 in assay [1] was 28 µM (inactive); in assay [2], 33.3 µM (inactive); in assay [3] it was 65.9 µM (inactive); in [4] it was 29.4 µM (inactive); in assay [5] it was 26.9 µM (inactive); in assay [8], 51.2 µM (inactive).
In the case of `N#CC(NNC(=O)c1ccccc1O)c1c(O)ccc2ccccc12` (stereo unspecified), the GI50 in [1] was 3.76 µM (inactive); in [2] it was 2.52 µM (inactive); in assay [3], 2.06 µM (inactive); in assay [4], 1.87 µM (inactive); in [5] it was 2.04 µM (inactive); in assay [8] it was 1.78 µM (inactive). In addition, the GI50 in [6] is 19.8 µM (inactive).
Turning to `O=C(O)C1=C(O)C(C(=O)O)C23CCCCCCCCCCC12C(C(=O)O)C(O)=C3C(=O)O` (stereo unspecified), the GI50 in assay [1], in assay [2], in assay [3], in assay [9], in [4] and in assay [5] was > 100 µM (inactive) in each case. For the same compound, in assay [8], the GI50 is > 100 µM (inactive).
Regarding `Cc1ccc(/C=C/C(=O)C(C)C)cc1`, the GI50 in assay [1] is 33.8 µM (inactive); in assay [3], 51.9 µM (inactive); in assay [4], 42.2 µM (inactive); in assay [8], 64 µM (inactive); in [6] it was 64.7 µM (inactive).
`Cc1cc(Br)cc(C)c1NC(=O)C(=O)CC(=O)c1sc(-n2nc(-c3ccccc3)cc2-c2ccccc2)nc1C`: the GI50 in assay [1], in assay [2], in [3], in [4], in [5] and in assay [8] was > 100 µM (inactive) each time. In addition, the GI50 in [6] and in assay [7] was > 100 µM (inactive) each time.
In the case of `COC(=O)CC1NC(=O)C1C1(C)OCCO1` (stereo unspecified), the GI50 in assay [1], in [2], in [3], in assay [9], in [4] and in [8] was > 100 µM (inactive) each time.
Take `COc1ccc(C(=O)C(c2ccc(OC)cc2)C2(O)C(=O)Nc3ccccc32)cc1` (stereo unspecified): the GI50 in [1], in [2], in assay [3], in assay [9], in [8] and in [6] was > 100 µM (inactive) throughout. Also, in [7], the GI50 was > 100 µM (inactive).
On to `O=C1OC(Cl)C(N=P(c2ccccc2)(c2ccccc2)c2ccccc2)=C1Cl` (stereo unspecified), for which the GI50 in assay [1], in assay [2], in [3], in assay [9], in assay [4] and in [8] was > 100 µM (inactive) each time. Besides, the GI50 in assay [6] was 37.9 µM (inactive).
For `C=C1CC[C@@H]2C(C)(C)C(O)CCC2(C)C1COc1ccc2ccc(=O)oc2c1` (stereo partly specified), the GI50 was 11.2 µM (inactive) in assay [1]; 14.3 µM (inactive) in assay [2]; 15.7 µM (inactive) in assay [3]; 16 µM (inactive) in assay [9]; 15 µM (inactive) in assay [4]; 19.6 µM (inactive) in assay [5]. The results for the GI50 in assay [8] and in [6] were 18.4 µM (inactive) and 19.4 µM (inactive), respectively.
For `CCOC(=O)Cc1c(Cc2[nH]c(C(=O)OCc3ccccc3)c(CC(=O)OCC)c2CC(=O)OCC)[nH]c(C(=O)OCc2ccccc2)c1CC(=O)OCC`, the GI50 in assay [1], in assay [4], in [5], in [8] and in [6] was > 100 µM (inactive) each time.
Consider `Cc1ccc(/C=C/C(=O)c2ccc(Cl)c(Cl)c2)cc1`, for which the GI50 in assay [1] was > 100 µM (inactive); in [2], > 100 µM (inactive); in assay [3] it was > 100 µM (inactive); in [9], > 100 µM (inactive); in assay [5], 63.1 µM (inactive); in assay [6], > 100 µM (inactive). Moreover, the GI50 in assay [7] is > 100 µM (inactive).
In the case of `CC(C)[Si](OCC1CC(C#N)OC(C)(C)O1)(C(C)C)C(C)C` (stereo unspecified), the GI50 was 19.2 µM (inactive) in [2]; 44.4 µM (inactive) in [3]; 21 µM (inactive) in [9]; > 10 µM (inactive) in assay [4]; 30.5 µM (inactive) in [5]; 25.2 µM (inactive) in [8]. Also, the GI50 in [6] was 20.5 µM (inactive).
In the case of `CCc1cccc(C)c1NC(=S)NC(=O)c1ccccc1C(=O)NC(=S)Nc1c(C)cccc1CC`, the GI50 in assay [1] was 85.5 µM (inactive); in [2], 95.3 µM (inactive); in assay [3] it was > 100 µM (inactive); in assay [4], 29.9 µM (inactive); in [5] it was 50.7 µM (inactive); in assay [8] it was 39.2 µM (inactive). For the same compound, in assay [6], the GI50 is > 100 µM (inactive).
Consider `CCn1c2ccccc2c2ccc3c(c21)C(=O)c1ccccc1C3=O`, for which the GI50 in assay [1], in assay [2], in [3], in assay [9], in [4] and in assay [5] was > 100 µM (inactive) throughout. The figures for the GI50 in assay [8] and in assay [6] were 24.2 µM (inactive) and > 100 µM (inactive), respectively.

These data come from ChEMBL document CHEMBL1201862, “PubChem BioAssay data set” (2004).
